Assay results reported in patent publication US20180085371A1, “COMBINATION OF PANOBINOSTAT AND RUXOLITINIB IN THE TREATMENT OF CANCER SUCH AS A MYELOPROLIFERATIVE NEOPLASM” (Novartis AG, priority 2011, published 2018).
Like-named read-outs stand apart in the source and are kept apart here.

How the values were obtained:
Type in all cases: in vivo, mouse
[1] = Levels post therapy, Example B (UPLC/MS-MS, blood and tissues); details: mean, N = 9; for concentration at 2 h: Balb/c, mouse, blood, read-out: Blood level 2 hr after final dose
Description: (§1) Concentrations of Compound A and Compound B in plasma and tissues were determined simultaneously by an UPLC/MS-MS assay. Tissues were homogenized in an equal volume of HPLC-Water (Water for chromatography, Merck) using the Fast Prep®-24 system (M.P. Biomedicals, Irvine, Calif., USA). Following addition of 25 μl of internal standard mixture (1 μg/ml) to analytical aliquots (25 μl) of blood or tissues homogenate, the proteins were precipitated by the addition of 200 μl acetonitrile. The supernatant were transferred in a fresh vial. After evaporation to dryness the samples were re-dissolved in 60 μl acetonitrile/water (1/1 v/v). An aliquot (5 μl) of this solution was separated on a ACQUITY UPLC BEH C18 column (Waters™ 1.7 μm particle size, 2.1×50 mm) with a mobile phase consisting of a mixture of 0.1% formic acid in water (solvent A) and 0.1% formic acid in acetonitrile (solvent B). Gradient programming was used with a flow rate of 600 μl/min. After equilibration with 95% solvent A, 5 μl of sample was injected. Following a latency period of 0.25 min., the sample was eluted with a linear gradient of 5-100% solvent B over a period of 0.65 minutes followed by a 0.35 min. hold. The column was prepared for the next sample by re-equilibrating over 0.25 min. to the starting conditions. The column eluent was directly introduced into the ion source of the triple quadrupole mass spectrometer TQDTM (Waters Corporation, Milford, Mass., USA) controlled by Masslynx™ 4.1 software. Electrospray positive ionization (ESI+) multiple reaction monitoring was used for the MS/MS detection of the analyte. Precursor to product ion transition of 307.0→m/z 186.0 for Compound A was used. Simultaneously precursor to product ion transition of 350.1→m/z 142.9 for Compound B was recorded. The limit of quantification (LOQ) for both compounds was set to 9 ng/ml and 9 ng/g for plasma and tissues, respectively (CV and overall bias less than 30%). Regression analysis and further calculations were performed using QuanLynx™ 4.1 (Micromass) and Excel™ 2007 (Microsoft). Concentrations of unknown samples were back-calculated based on the peak area ratios of analyte/IS from a calibration curve constructed using calibration samples spiked in blank blood or tissue obtained from animals treated with vehicle.

[2] = PK analysis 2 hours post-therapy, Example A (blood and tissue levels); details: mean; for BM level 2 hr post-therapy: BM levels to be taken with caution
Description: 2 hours after last dose for Compound A;
2 hours after last dose for Compound B; • Spleen weight is recorded at sacrifice. • Samples collected and snap frozen in liquid nitrogen and then kept at −80° C. until analysis: • spleen, BM, blood and liver for PK analysis • spleen for PD marker analysis (p-STATS (Compound A) and protein acetylation (Compound B)), • sternum for PD marker analysis (p-STATS (Compound A).
as §1

[3] = test system: p-STAT5; test: PD marker p-STAT5 by IHC in spleen and bone marrow; details: Compound A 60 mg/kg single agent or with Compound B 8 mg/kg
Description: The p-STAT5 PD marker of Compound A and Acetylated Histone H3 PD marker of Compound B were assessed in spleen and bone marrow. Briefly, the spleen was removed in total, weighed and placed on a dissection tray. The spleen was cut transverse in two halves and two equal pieces were taken from the middle parts using a scalpel. Spleen pieces were not allowed to exceed 3-4 mm in thickness. Spleen pieces were transferred into labeled histocassettes and immersion-fixed in neutral buffered formalin (NBF) 10% (v/v) at room temperature (pH 6.8-7.2) (J.T. Baker, Medite, Switzerland). Fixative volume was at least tenfold in excess compared to tissue volume. […]
For histological evaluation, BM cellularity was evaluated as hypercellularity (3+), normocellularity (2+), and hypocellularity (1+). Splenic architecture was evaluated as destroyed (1+) or preserved (0). Presence of myeloid, erythroid and adipocytes cells was evaluated as 0, 1+, 2+, 3+ based on cellularity. […] Whole slide automated quantitative assessment of p-STAT5-positive and -negative cell nuclei were performed using Definiens eCognition software (eCognition version XD 1.5, Definiens AG, Germany). The results were expressed as percent of positive p-STAT5 nuclei out of total nuclei. Staining of acetylated histone H3 was scored as 1+, 2+, 3+ based on staining intensity and number of positive cells.

[4] = Combo Compound A (60 mg/kg) and B (8 mg/kg)
[5] = single agent: Comp'd B 8 mg/kg or Comp'd A 60 mg/kg
[6] = treatment Compound A 60 mg/kg + Compound B 4 mg/kg
[7] = treatment Compound A 60 mg/kg + Compound B 8 mg/kg
[8] = treatment Compound A 60 mg/kg + Compound B 12 mg/kg

concentration at 2 h [1, 4] [nM]	concentration at 2 h [1, 5] [nM]	BM level 2 hr after final dose [1, 4] [nmol/g]	Liver level 2 hr after final dose [1, 4] [nmol/g]	Spleen level 2 hr after final dose [1, 4] [nmol/g]	BM level 2 hr after final dose [1, 5] [nmol/g]	Liver level 2 hr after final dose [1, 5] [nmol/g]	Spleen level 2 hr after final dose [1, 5] [nmol/g]	Blood level 2 hr post-therapy [2, 6] [µM]	Liver level 2 hr post-therapy [2, 6]	Spleen level 2 hr post-therapy [2, 6]	BM level 2 hr post-therapy [2, 6]	Blood level 2 hr post-therapy [2, 7] [µM]	Liver level 2 hr post-therapy [2, 7] [nmol/g]	Spleen level 2 hr post-therapy [2, 7] [nmol/g]	BM level 2 hr post-therapy [2, 7] [nmol/g]	Blood level 2 hr post-therapy [2, 8] [µM]	Liver level 2 hr post-therapy [2, 8] [nmol/g]	Spleen level 2 hr post-therapy [2, 8] [nmol/g]	BM level 2 hr post-therapy [2, 8] [nmol/g]	Structure (SMILES)	also measured
6	35	4.398	0.33	15.317	2.704	0.264	10.045	0.02	0.30 + nmol/g	2.80 + nmol/g	6.15 + nmol/g	0.03	0.32	3.02	8.43	0.02	0.71	4.51	9.81	Cc1[nH]c2ccccc2c1CCNCc1ccc(/C=C/C(=O)NO)cc1 [Compound B, N-hydroxy-3-[4-[[[2-(2-methyl-1H-indol-3-yl)-ethyl]-amino]methyl]phenyl]-2E-2-propenamide]	Blood level 2 hr post-therapy ([2]; treatment Compound B 4 mg/kg): BLQ; Liver level 2 hr post-therapy ([2]; treatment Compound B 4 mg/kg): 0.18 nmol/g; Spleen level 2 hr post-therapy ([2]; treatment Compound B 4 mg/kg): 1.40 nmol/g; BM level 2 hr post-therapy ([2]; treatment Compound B 4 mg/kg): 3.34 nmol/g; Blood level 2 hr post-therapy ([2]; treatment Compound B 8 mg/kg): BLQ; Liver level 2 hr post-therapy ([2]; treatment Compound B 8 mg/kg): 0.25 nmol/g; Spleen level 2 hr post-therapy ([2]; treatment Compound B 8 mg/kg): 2.07 nmol/g; BM level 2 hr post-therapy ([2]; treatment Compound B 8 mg/kg): 3.17 nmol/g; Blood level 2 hr post-therapy ([2]; treatment Compound B 12 mg/kg): BLQ; Liver level 2 hr post-therapy ([2]; treatment Compound B 12 mg/kg): 0.63 nmol/g; Spleen level 2 hr post-therapy ([2]; treatment Compound B 12 mg/kg): 3.64 nmol/g; BM level 2 hr post-therapy ([2]; treatment Compound B 12 mg/kg): 7.32 nmol/g
4110	8180	1.469	3.568	1.575	2.223	6.537	2.566	2.78	3.49 + nmol/g	1.15 + nmol/g	2.59 + nmol/g	2.23	2.91	1.02	1.92	2.72	3.87	1.61	2.29	N#CC[C@H](C1CCCC1)n1cc(-c2ncnc3[nH]ccc23)cn1 [Compound A, (R)-3-(4-(7H-pyrrolo[2,3-d]pyrimidin-4-yl)-1H-pyrazol-1-yl)-3-cyclopentylpropanenitrile]	p-STAT5 PD marker (IHC) [3]: clear reduction; Blood level 2 hr post-therapy ([2]; treatment Compound A 60 mg/kg): 1.96 µM; Liver level 2 hr post-therapy ([2]; treatment Compound A 60 mg/kg): 4.54 nmol/g; Spleen level 2 hr post-therapy ([2]; treatment Compound A 60 mg/kg): 1.28 nmol/g; BM level 2 hr post-therapy ([2]; treatment Compound A 60 mg/kg): 1.40 + nmol/g
